According to patent US9993529B2, “Stable formulations of a hyaluronan-degrading enzyme” (Halozyme, Inc., priority 2011, dated 2018):
Where two headings read alike, the source gives them in different places. Residues, ends and D or L forms follow the SMILES beside them.

Columns and labels:
SEC, % main rHuPH20 peak = format: physicochemical
Procedure: SEC was performed using the following conditions: 1× Phosphate Buffered Saline (PBS), a Toso BioScience G2000 SWXL column, and a flow rate set at 1 mL/min. Data were collected as described above and means were reported and entered into the design table following the sample sequence provided by the DOE software.

rHuPH20 = target: T1, rHuPH20 (Homo sapiens, UniProt P38567); settings: for rHuPH20 activity: 48 hours; for Effect on rHuPH20 enzymatic activity: stabilizer screen in rHuPH20/insulin formulation ([…] m-cresol, 0.2% phenol, pH 7.3±0.1), 30° C. about one week, semi-quantitative in comparison with NaCl
T1 sequence (P38567 36-482): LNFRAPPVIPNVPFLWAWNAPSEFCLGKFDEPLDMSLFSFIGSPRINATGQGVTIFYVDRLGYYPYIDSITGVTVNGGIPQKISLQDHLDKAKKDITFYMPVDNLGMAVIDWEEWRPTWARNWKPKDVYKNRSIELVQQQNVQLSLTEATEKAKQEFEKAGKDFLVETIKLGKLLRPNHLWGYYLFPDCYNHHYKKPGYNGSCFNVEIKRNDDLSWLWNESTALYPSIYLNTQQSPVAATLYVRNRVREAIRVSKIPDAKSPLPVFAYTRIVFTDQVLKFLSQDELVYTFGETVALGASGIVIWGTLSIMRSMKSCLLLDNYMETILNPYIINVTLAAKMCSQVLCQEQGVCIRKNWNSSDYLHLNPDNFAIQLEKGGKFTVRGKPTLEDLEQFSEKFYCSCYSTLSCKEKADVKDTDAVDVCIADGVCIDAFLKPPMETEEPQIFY
Procedure: The activity of a hyaluronan degrading enzyme can be assessed using methods well known in the art. […] A Hyaluronidase Reference Standard (USP) or National Formulary (NF) Standard Hyaluronidase solution can be used in an assay to ascertain the activity, in units, of any hyaluronidase. In one example, activity is measured using a microturbidity assay. […] The turbidity of the resulting sample is measured at 640 nm after an additional development period.

[1] = RP-HPLC insulin apparent solubility / percent recovery (content)
Procedure: Apparent solubility was measured as the percent insulin recovery as compared to the initial formulations/conditions.
Samples were prepared by withdrawing 100 μL from each vial at every time point and centrifuging prior to loading. Samples were stored in an autosampler at 4° C. prior to use, and were considered stable for 3 days after preparation. All samples were tested in duplicate.
For insulin, 20 μL was injected for each HPLC run.
To determine the apparent solubility, the peak area of insulin/insulin analog main peak and desamido peak were integrated and combined together to calculate the percentage relative to the standards. […] The data were processed using Design-Expert® 7.0 (StatEase) and the “historical data” feature. Insulin percent purity was expressed as the percent of main insulin versus all insulin species.

[2] = in vivo; cited from earlier work
[3] = Temperature effect on pH and NaOH titration of lysyl lysine buffer; format: physicochemical; settings: Ex27 rHuPH20/insulin glulisine formulations
[4] = RP-HPLC rHuPH20 oxidation peaks (ox-1, ox-2); format: physicochemical; settings: 0.02% surfactant, 30° C., 72 hours
Excerpt: The stability of hyaluronan degrading enzymes in a composition, such as in the co-formulations provided herein, also can be assessed using other methods and assays known in the art. […] Percent recovery is the relative percentage of the hyaluronidase in the co-formulation over time and at various storage conditions, as compared to a reference sample. […] An increase in particle size and a decrease in the melting temperature indicates denaturation and subsequent aggregation of the hyaluronidase. […] Other methods known to one of skill in the art that can be used to determine the stability of the hyaluronidase in the co-formulations provided herein, include polyacrylamide gel electrophoresis (PAGE), immunoblotting, nuclear magnetic resonance (NMR) spectroscopy, mass spectrometry, circular dichroism (CD) and dye-based fluorescence assays.
The formulations varied in the surfactant and surfactant concentration and the buffer (either histidine or phosphate).
Methionine oxidation can be prevented by addition of free methionine as a scavenger to react with potential oxidative compounds.

[5] = 35° C., 1 day, concentrations of Table 21
[6] = 4° C., concentrations of Table 22
[7] = stabilizer screen in rHuPH20/insulin formulation, RP-HPLC on samples stored at 5° C., semi-quantitative in comparison with NaCl

For Benzalkonium Chloride, the “% Main rHuPH20 peak by non-denaturing SEC” value (SEC, % main rHuPH20 peak; [5]) was “<LOD”.

With `Cc1cccc(O)c1` [m-cresol] the rHuPH20 activity (rHuPH20; 35° C.) was “<LOQ” and the “% Main rHuPH20 peak by non-denaturing SEC” value (SEC, % main rHuPH20 peak; [6]) was 100.00%.

In the case of `OCC(O)CO` [glycerol], the “Effect on insulin solubility” value [1] is reported as “No/slight effect;” and the “Effect on rHuPH20 enzymatic activity” value (rHuPH20) is reported as “No effect”.

For detemir: long-lasting insulin analog, the Duration [2] is given as 28 h.

With `NC(CO)(CO)CO` [Tris (100 mM)] the “Effect on insulin solubility” value [1] was “No effect” and the “Effect on rHuPH20 enzymatic activity” value (rHuPH20) was “No effect”.

With `O=C(O)CCCc1ccccc1` [Phenyl butyric acid] the “Effect on rHuPH20 enzymatic activity” value (rHuPH20) was “No effect”.

In the case of `OC[C@@H](O)[C@@H](O)[C@H](O)[C@H](O)CO` [Mannitol], the “Effect on rHuPH20 enzymatic activity” value (rHuPH20) is reported as “No effect”.

For `O[C@H]1[C@H](O)[C@@H](O)[C@H](O)[C@@H](O)[C@H]1O` [Inositol], the “Effect on rHuPH20 enzymatic activity” value (rHuPH20) was “No effect”.

For `CSCC[C@H](N)C(=O)O` [methionine], the “Effect on insulin solubility” value [1, 7] was “No effect” and the “Effect on rHuPH20 enzymatic activity” value (rHuPH20) was “No effect”.

In the case of `C[N+](C)(C)CC(=O)O` [Betaine], the “Effect on insulin solubility” value [1, 7] is reported as “No effect” and the “Effect on rHuPH20 enzymatic activity” value (rHuPH20) is reported as “No effect”.

With `NCCCC[C@H](N)C(=O)O` [Lysine] the “Effect on insulin solubility” value [1, 7] was “No effect” and the “Effect on rHuPH20 enzymatic activity” value (rHuPH20) was “No effect”.

With `Cl.Cl.NCCCCC(N)C(=O)NC(CCCCN)C(=O)O` (stereo not drawn) [Lys-Lys, H-Lys-Lys-OH HCl] the “Effect on insulin solubility” value [1, 7] was “Reduced solubility”, the “Effect on insulin solubility” value ([1]; stabilizer screen, 5° C.) was “caused severe precipitation of insulin” and the “Lys-Lys concentration sufficient to improve rHuPH20 stability” value (rHuPH20; Ex24, 40° C.) was 10 mM. For the same molecule, the “Effect on rHuPH20 enzymatic activity” value (rHuPH20) was “Strong stabilizer”, the “stabilization of rHuPH20 compared with NaCl” value (rHuPH20; stabilizer screen, […] m-cresol, 0.2% phenol, 30° C., about one week) was “stabilized rHuPH20 more than NaCl” and the “temperature effect (dpH/dT)” value [3] was −0.033 U/° C.

With `N[C@@H](Cc1ccccc1)C(=O)O` [L-Phenylalanine] the “% Main rHuPH20 peak by non-denaturing SEC” value (SEC, % main rHuPH20 peak; [6]) was 100.00%.

In the case of `NC(=O)CC[C@H](N)C(=O)O` [Glutamine], the “Effect on insulin solubility” value [1, 7] is reported as “No effect” and the “Effect on rHuPH20 enzymatic activity” value (rHuPH20) is reported as “No effect”.

In the case of `COC(=O)c1ccc(O)cc1` [methylparaben], the rHuPH20 activity (rHuPH20; 4° C.) is reported as 10,380, the rHuPH20 activity (rHuPH20; 35° C.) is reported as 12,660 and the “Enzymatic Activity of rHuPH20” value (rHuPH20; preservative 0.05 %, 1 Month, 25° C., insulin/rHuPH20) is reported as 2061 U/mL. The “Enzymatic Activity of rHuPH20” value (rHuPH20; preservative 0.05 %, 1 Week, 35° C.) was 1058^2 U/mL, the “Enzymatic Activity of rHuPH20” value (rHuPH20; preservative 0.05 %, 2 Weeks, 35° C.) was 1018^2 U/mL and the “Enzymatic Activity of rHuPH20” value (rHuPH20; preservative 0.1 %, 1 Month, 25° C.) was 1919 U/mL. The “Enzymatic Activity of rHuPH20” value (rHuPH20; preservative 0.1 %, 1 Week, 35° C.) was 2085 U/mL, the “Enzymatic Activity of rHuPH20” value (rHuPH20; preservative 0.1 %, 2 Weeks, 35° C.) was 1968 U/mL and the “Enzymatic Activity of rHuPH20” value (rHuPH20; preservative 0.2 %, 1 Month, 25° C.) was 2196 U/mL. The “Enzymatic Activity of rHuPH20” value (rHuPH20; preservative 0.2 %, 1 Week, 35° C.) was 1927 U/mL, the “Enzymatic Activity of rHuPH20” value (rHuPH20; preservative 0.2 %, 2 Weeks, 35° C.) was 1590 U/mL and the “Enzymatic Activity of rHuPH20” value (rHuPH20; preservative 0.3 %, 1 Month, 25° C.) was 2049 U/mL. For the same molecule, the “Enzymatic Activity of rHuPH20” value (rHuPH20; preservative 0.3 %, 2 Weeks, 35° C.) was 447 U/mL and the “% Main rHuPH20 peak by non-denaturing SEC” value (SEC, % main rHuPH20 peak; [6]) was 100.00%.

For `O=C([O-])c1ccccc1.[Na+]` [Sodium Benzoate], the “Effect on rHuPH20 enzymatic activity” value (rHuPH20) was “No effect”.

In the case of Polysorbate 20, the “% of Oxidation Peak 1 of rHuPH20” value ([4]; Methionine 0 mM) is reported as 4.01%, the “% of Oxidation Peak 1 of rHuPH20” value ([4]; Methionine 2 mM) is reported as 3.43% and the “% of Oxidation Peak 1 of rHuPH20” value ([4]; Methionine 10 mM) is reported as 3.37%. The “% of Oxidation Peak 1 of rHuPH20” value ([4]; Methionine 50 mM) was 3.38%.

For `C[N+](C)(C)[O-]` [Trimethylamine oxide (TMAO)], the “Effect on insulin solubility” value [1, 7] was “No effect” and the “Effect on rHuPH20 enzymatic activity” value (rHuPH20) was “No effect”.

For Polysorbate 80, the “% of Oxidation Peak 1 of rHuPH20” value ([4]; Methionine 0 mM) was 4.01%, the “% of Oxidation Peak 1 of rHuPH20” value ([4]; Methionine 2 mM) was 3.50% and the “% of Oxidation Peak 1 of rHuPH20” value ([4]; Methionine 10 mM) was 3.44%. The “% of Oxidation Peak 1 of rHuPH20” value ([4]; Methionine 50 mM) was 3.34%.

With `OC[C@@H](O)[C@@H](O)[C@H](O)[C@@H](O)CO` [sorbitol] the “Effect on rHuPH20 enzymatic activity” value (rHuPH20) was “No effect”.

In the case of `OC[C@H]1O[C@@](CO)(O[C@H]2O[C@H](CO)[C@@H](O)[C@H](O)[C@H]2O)[C@@H](O)[C@@H]1O` [Sucrose], the “Effect on rHuPH20 enzymatic activity” value (rHuPH20) is reported as “No effect”.

With `NCC(=O)NCC(=O)O` [Gly-Gly] (H-Gly-Gly-OH) the “Effect on rHuPH20 enzymatic activity” value (rHuPH20) was “No effect”.

With `OCCCCCl` [4-Chloro-1-butanol] the “% Main rHuPH20 peak by non-denaturing SEC” value (SEC, % main rHuPH20 peak; [5]) was “<LOD”.

For glargine: long-lasting insulin analog, the Duration [2] is listed as 28 h.

With `OC[C@H]1O[C@H](O[C@H]2O[C@H](CO)[C@@H](O)[C@H](O)[C@H]2O)[C@H](O)[C@@H](O)[C@@H]1O` [Trehalose] the “Effect on rHuPH20 enzymatic activity” value (rHuPH20) was “No effect”.
